Legend:
[1] = tested on: protein carbonyls and pentosidine; experiment: Protein carbonyls (AAS, GGS) and pentosidine in plasma (fluorescent HPLC); type: in vivo, mice; details: L-carnitine (0.02%, w/v) in drinking water for 40 days; carnitine group vs control group
Method: (§1) A humanized gnotobiotic mouse model was developed through the fecal microbiota transplantation of human feces into germ-free mice. Prior to the transplantation procedure, 18-week-old mice (n = 40) were orally treated by gavage with 200 µL of antibiotic cocktail composed of vancomycin (5 mg mL^-1), neomycin, metronidazole and ampicillin 155 (10 mg mL^-1) in order to deplete the bacterial content. An all-bacteria qPCR was performed with universal 16S rRNA primers that detect a broad range of bacterial species to verify complete absence of detectable bacteria in the feces.
(§2) Then, mice received a fecal microbiota transplantation from a selection of patients to recolonize the gastrointestinal tract, as previously described. Specifically, three patients with IHD, T2DM and high plasma levels of TMAO were eligible for feces donation. Fresh fecal samples were suspended in sterile phosphate buffered saline (PBS) and glycerol was added at 10 % (v/v) final concentration; then, samples were aliquoted into cryotubes and immediately stored at -80 °C. At the moment of the transplantation, aliquot samples from these patients were thawed in ice and mixed in equal quantities as a sample pool to guarantee that every mouse received a similar microbiota load. The sample pool was centrifuged for 2 minutes at 2,800 xg, and the supernatant was transferred to mice by oral gavage for three consecutive days according to previously published protocols. Mice were moved to clean cages every two days to minimize the coprophagia and to prevent reinoculation from old feces. […]

SCFA species = SCFA species in feces (GC-FID) of humanized gnotobiotic mice; type: in vivo; details: L-carnitine (0.02%, w/v) in drinking water for 40 days; carnitine group vs control group
Method: as §1
as §2, with “load.” for “load. The sample pool was centrifuged for 2 minutes at 2,800 xg, and the supernatant was transferred to mice by oral gavage for three consecutive days according to previously published protocols. Mice were moved to clean cages every two days to minimize the coprophagia and to prevent reinoculation from old feces.”

TMA and TMAO = experiment: L-carnitine, TMA and TMAO levels in plasma (LC-MS) of humanized gnotobiotic mice; type: in vivo; details: L-carnitine (0.02%, w/v) in drinking water for 40 days; carnitine group vs control group
Method: as §1, §2

[2] = tested on: cardiovascular disease markers; experiment: Cardiovascular markers in plasma (Mouse CVD Magnetic Bead Panel 1); type: in vivo, mice; details: L-carnitine (0.02%, w/v) in drinking water for 40 days; carnitine group vs control group
Method: as §1
as §2, with “load.” for “load. The sample pool was centrifuged for 2 minutes at 2,800 xg, and the supernatant was transferred to mice by oral gavage for three consecutive days according to previously published protocols. Mice were moved to clean cages every two days to minimize the coprophagia and to prevent reinoculation from old feces.”

gut microbiota = experiment: Fecal microbiota analysis by 16S rRNA gene sequencing in humanized gnotobiotic mice; type: in vivo
Method: as §2, with “A humanized gnotobiotic mouse model was developed through the fecal microbiota transplantation of human feces into germ-free mice. Prior to the transplantation procedure, 18-week-old mice (n = 40) were orally treated by gavage with 200 μL of antibiotic cocktail composed of vancomycin (5 mg mL^-1), neomycin, metronidazole and ampicillin 155 (10 mg mL^-1) in order to deplete the bacterial content. An all-bacteria qPCR was performed with universal 16S rRNA primers that detect a broad range of bacterial species to verify complete absence of detectable bacteria in the feces. Then,” for “Then,”

cytokines and chemokines = experiment: Cytokines and chemokines in plasma (ProcartaPlex 26-Plex); type: in vivo, mice; details: L-carnitine (0.02%, w/v) in drinking water for 40 days
Method: as §1
as §2, with “load.” for “load. The sample pool was centrifuged for 2 minutes at 2,800 xg, and the supernatant was transferred to mice by oral gavage for three consecutive days according to previously published protocols. Mice were moved to clean cages every two days to minimize the coprophagia and to prevent reinoculation from old feces.”

[3] = genus level, fecal samples, among control, carnitine, savory, parsley and rosemary groups, 40 days

C[N+](C)(C)C[C@H](O)CC(=O)[O-] [carnitine, L-carnitine]
plasma levels of AAS [1]: no significant effects
plasma levels of GGS [1]: no significant effects
plasma pentosidine levels [1]: no differences
fecal levels of SCFA species (acetic, butyric and propionic acids) (SCFA species): no significant differences
plasma L-carnitine levels (TMA and TMAO): significant increase
plasma TMA levels (TMA and TMAO): significant increase
plasma TMAO levels (TMA and TMAO): no significant differences
plasma cardiovascular disease markers (Se-selectin, sICAM-1, Precam-1, sP-selectin, PAI-1 and thrombomodulin) [2]: no significant differences
relative abundance at the family and genus levels (gut microbiota; L-carnitine (0.02%, w/v) in drinking water for 40 days, carnitine group vs control group): no differences
Chao1 index (alpha diversity) (gut microbiota; [3]): no significant differences
Shannon index (alpha diversity) (gut microbiota; [3]): no significant differences
plasma IFNγ levels (cytokines and chemokines; carnitine group vs control group): significant increase
plasma CXCL10 levels (cytokines and chemokines; vs control group): significant increase

— patent EP4353088A1, “COMPOSITIONS OR COMBINED PREPARATIONS OF ESSENTIAL OILS AND L-CARNITINE” (Servicio Andaluz de Salud, priority 2022, dated 2024)
